Reference: US12649727B2, “EFGR inhibitor, preparation method therefor and application thereof” (Abbisko Therapeutics Co., Ltd, priority 2020, dated 2026)

How the values were obtained:
Type in all cases: cell-based
A431 (EGFR-WT) = assay: Proliferation experiment, A431 cell line (CellTiter-Glo); details: Homo sapiens, A-431; A431 cells, cultured for 72 hrs with compound, CTG analysis
Method: [The procedure below names another cell line; the source lists this cell line under the same test.] (§1) Proliferation Experiment of Ba/F3 Cell Line
(§2) (I) Reagents and Materials
(§3) • Fetal bovine serum FBS (GBICO, Cat #10099-141); • CellTiter-Glo® luminescent cell viability assay kit (Promega, Cat #G7572); • Black transparent flat-bottom 96 well plate (Corning®, Cat #3603). (II) Instruments • SpectraMax multi-label microplate reader MD, 2104-0010A; • Carbon dioxide incubator, Thermo Scientific 3100 series; • Biological safety cabinet, Thermo Scientific, 1300 series model A2; • Inverted microscope, Olympus, CKX41SF; • Siemens refrigerator KK25E76TI. (III) Cell Lines and Culture Conditions
(§4) (IV) Experimental Procedures 1. Cell Culture and Inoculation: • (1) Cells in the logarithmic growth phase were harvested and counted using a […]. Cell viability was detected by Trypan Blue Dye Exclusion Method to ensure cell viability above 90%. • (2) The cell concentration was adjusted to reach a desired final density; 90 μL of cell suspension was added to the 96-well plate. • (3) The cells were incubated overnight in the 96-well plate at 37° C., 5% CO2 and at 95% humidity.
(§5) 2. T0 Reference Data: • (1) 10 μL PBS was added to each well of the TO plate containing the cells. • (2) The CTG reagent was thawed and the cell plate was equilibrated to room temperature for 30 min. • (3) An equal volume of CTG solution was added to each well. • (4) The cells were lysed by shaking on an orbital shaker for 5 min. • (5) The cell plate was left at room temperature for 20 min to stabilize the luminescence signal. • (6) The fluorescence signal values of TO were read. 3. Dilution and Addition of Compounds • (1) According to the compound information table, a corresponding volume of DMSO was added to the corresponding compound powder to prepare a 10 mM stock solution. • (2) A 1000-fold, 3.16-fold-diluted compound solution was prepared. • (3) The 1000× diluted compound solution was diluted 100-fold with PBS to prepare a 10-fold compound solution with a maximum concentration of […], including 9 concentrations, with 3.16-fold dilution, and 10 μL of the medicament solution was added to each well of the 96-well plate to seed the cells. Triplicate wells were set for each compound concentration, with a final concentration of DMSO being 0.1%. • (4) The cells were placed in the 96-well plate filled with the medicament at 37° C., 5% CO2 and at 95% humidity, and cultured for 72 hrs before CTG analysis. 4. Fluorescence Signal Reading • (1) The CTG reagent was thawed and the cell plate was equilibrated to room temperature for 30 min. • (2) An equal volume of CTG solution was added to each well. • (3) The cells were lysed by shaking on an orbital shaker for 5 min. • (4) The cell plate was left at room temperature for 20 min to stabilize the fluorescence signal. • (5) The fluorescence values were read. 5. Data Processing
(§6) Data were analyzed using GraphPad Prism 7.0 software and fitted data were regressed using non-linear S-curves to obtain dose-response curves from which IC50 values (in nM) were calculated.

[1] = target: Ba/F3 EGFR-V769_D770insASV (Homo sapiens, UniProt P00533, DUP767-769, cells depend on it); assay: Proliferation experiment of Ba/F3 cell line, EGFR-V769_D770insASV (CellTiter-Glo); details: cultured for 72 hrs with compound, CTG analysis, read-out: Ba/F3 EGFR-V769_D770insASV IC50
Sequence of Ba/F3 EGFR-V769_D770insASV (P00533 with tags, fused parts or gaps DUP767-769): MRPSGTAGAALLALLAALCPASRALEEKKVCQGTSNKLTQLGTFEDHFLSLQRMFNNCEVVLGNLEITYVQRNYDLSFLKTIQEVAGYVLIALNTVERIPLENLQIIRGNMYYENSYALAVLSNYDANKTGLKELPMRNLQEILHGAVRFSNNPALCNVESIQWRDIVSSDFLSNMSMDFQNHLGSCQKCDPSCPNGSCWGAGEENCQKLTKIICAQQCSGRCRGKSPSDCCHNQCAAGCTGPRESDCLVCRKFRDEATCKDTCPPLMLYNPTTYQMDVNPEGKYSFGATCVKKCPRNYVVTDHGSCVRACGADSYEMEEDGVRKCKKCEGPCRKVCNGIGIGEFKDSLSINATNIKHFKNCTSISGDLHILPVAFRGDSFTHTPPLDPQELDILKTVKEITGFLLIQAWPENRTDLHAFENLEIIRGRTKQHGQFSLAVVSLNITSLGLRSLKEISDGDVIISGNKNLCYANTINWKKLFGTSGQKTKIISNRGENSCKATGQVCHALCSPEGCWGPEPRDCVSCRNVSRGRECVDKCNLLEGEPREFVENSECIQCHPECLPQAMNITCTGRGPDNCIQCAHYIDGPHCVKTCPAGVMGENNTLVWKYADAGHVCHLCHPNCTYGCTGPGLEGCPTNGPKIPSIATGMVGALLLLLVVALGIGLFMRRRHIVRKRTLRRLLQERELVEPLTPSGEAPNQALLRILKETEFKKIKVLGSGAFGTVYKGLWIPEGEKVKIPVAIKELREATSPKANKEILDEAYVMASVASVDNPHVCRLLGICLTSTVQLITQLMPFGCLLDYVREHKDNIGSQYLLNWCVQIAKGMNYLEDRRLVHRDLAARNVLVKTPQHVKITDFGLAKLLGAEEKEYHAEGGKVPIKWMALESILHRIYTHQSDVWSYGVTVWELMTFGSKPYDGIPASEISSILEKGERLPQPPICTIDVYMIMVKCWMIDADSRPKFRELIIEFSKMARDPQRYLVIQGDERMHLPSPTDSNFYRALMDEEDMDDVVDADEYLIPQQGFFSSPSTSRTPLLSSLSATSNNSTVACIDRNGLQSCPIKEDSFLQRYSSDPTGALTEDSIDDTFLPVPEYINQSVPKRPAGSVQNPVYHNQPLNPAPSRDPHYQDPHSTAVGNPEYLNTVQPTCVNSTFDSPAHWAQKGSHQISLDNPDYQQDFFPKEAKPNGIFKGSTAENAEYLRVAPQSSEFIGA
Method: as §1, §2, §3, §4, §5, §6

[2] = target: Ba/F3 EGFR-D770-N771ins_SVD (Homo sapiens, UniProt P00533, DUP768-770, cells depend on it); assay: Proliferation experiment of Ba/F3 cell line, EGFR-D770-N771ins_SVD (CellTiter-Glo); details: cultured for 72 hrs with compound, CTG analysis, read-out: Ba/F3 EGFR-D770-N771ins_SVD IC50
Sequence of Ba/F3 EGFR-D770-N771ins_SVD (P00533 with tags, fused parts or gaps DUP768-770): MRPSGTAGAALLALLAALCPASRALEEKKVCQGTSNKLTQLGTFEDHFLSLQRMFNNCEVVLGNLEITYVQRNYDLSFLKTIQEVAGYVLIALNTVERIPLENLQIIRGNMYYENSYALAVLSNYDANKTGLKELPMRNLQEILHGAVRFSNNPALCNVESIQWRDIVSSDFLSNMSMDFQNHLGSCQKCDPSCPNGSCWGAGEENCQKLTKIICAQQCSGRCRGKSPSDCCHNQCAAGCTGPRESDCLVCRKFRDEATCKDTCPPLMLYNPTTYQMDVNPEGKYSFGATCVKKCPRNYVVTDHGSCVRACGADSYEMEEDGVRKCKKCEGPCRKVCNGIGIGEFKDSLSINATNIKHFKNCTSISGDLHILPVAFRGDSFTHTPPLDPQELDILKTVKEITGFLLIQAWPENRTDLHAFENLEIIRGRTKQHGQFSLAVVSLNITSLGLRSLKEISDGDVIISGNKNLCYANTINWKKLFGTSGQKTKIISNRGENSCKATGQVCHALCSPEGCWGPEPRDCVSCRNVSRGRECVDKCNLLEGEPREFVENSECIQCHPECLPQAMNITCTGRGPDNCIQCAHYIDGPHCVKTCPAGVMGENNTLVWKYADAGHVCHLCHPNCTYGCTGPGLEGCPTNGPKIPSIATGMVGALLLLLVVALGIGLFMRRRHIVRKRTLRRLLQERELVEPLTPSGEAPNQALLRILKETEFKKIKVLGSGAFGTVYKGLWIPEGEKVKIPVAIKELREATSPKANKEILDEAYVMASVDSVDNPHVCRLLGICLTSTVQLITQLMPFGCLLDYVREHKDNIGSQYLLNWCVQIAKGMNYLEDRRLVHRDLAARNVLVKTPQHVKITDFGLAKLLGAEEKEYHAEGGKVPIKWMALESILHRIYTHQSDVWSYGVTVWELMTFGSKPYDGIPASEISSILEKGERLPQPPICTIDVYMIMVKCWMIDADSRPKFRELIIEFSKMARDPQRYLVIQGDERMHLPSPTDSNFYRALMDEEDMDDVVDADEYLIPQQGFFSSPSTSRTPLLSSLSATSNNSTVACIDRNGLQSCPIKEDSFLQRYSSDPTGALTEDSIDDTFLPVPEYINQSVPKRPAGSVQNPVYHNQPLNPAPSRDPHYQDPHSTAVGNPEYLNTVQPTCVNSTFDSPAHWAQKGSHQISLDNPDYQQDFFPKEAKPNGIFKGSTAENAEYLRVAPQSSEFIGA
Method: as §1, §2, §3, §4, §5, §6

IC50 (A431 (EGFR-WT)) [µM] | GI50 [1] [µM] | GI50 [2] [µM] | Compound
0.988 | 0.0029 | – | C=CC(=O)Nc1cc2c(Nc3ccnc(-c4ccccc4F)c3)ncnc2cc1O[C@@H]1CCN(C2CCOCC2)C1 [Example 117, (R)-N-(4-((2-(2-fluorophenyl)pyridin-4-yl)amino)-7-((1-(tetrahydro-2H-pyran-4-yl)pyrrolidin-3-yl)oxy)quinazolin-6-yl)acrylamide]
0.006 | 0.0071 | – | C=C(F)C(=O)Nc1cc2c(Nc3ccnc(-c4ccccc4F)c3)ncnc2cc1O[C@@H]1CCN(C2CCN(C)CC2)C1 [Example 120, (R)-2-fluoro-N-(4-((2-(2-fluorophenyl)pyridin-4-yl)amino)-7-((1-(1-methylpiperidin-4-yl)pyrrolidin-3-yl)oxy)quinazolin-6-yl)acrylamide]
0.24 | 0.0208 | – | C=C(F)C(=O)Nc1cc2c(Nc3ccnc(-c4ccccc4F)c3)ncnc2cc1N1CCN(C)CC1 [Example 101, 2-fluoro-N-(4-((2-(2-fluorophenyl)pyridin-4-yl)amino)-7-(4-methylpiperazin-1-yl)quinazolin-6-yl)acrylamide]
0.0102 | 0.0034 | – | C=C(F)C(=O)Nc1cc2c(Nc3ccnc(-c4ccccc4F)c3)ncnc2cc1O[C@@H]1CCN(C2CN(C)C2)C1 [Example 119, (R)-2-fluoro-N-(4-((2-(2-fluorophenyl)pyridin-4-yl)amino)-7-((1-(1-methylazetidin-3-yl)pyrrolidin-3-yl)oxy)quinazolin-6-yl)acrylamide]
0.0232 | 0.0076 | – | C=CC(=O)Nc1cc2c(Nc3ccnc(-c4ccccc4F)c3)ncnc2cc1O[C@@H]1CCN(C2CN(C)C2)C1 [Example 115, (R)-N-(4-((2-(2-fluorophenyl)pyridin-4-yl)amino)-7-((1-(1-methylazetidin-3-yl)pyrrolidin-3-yl)oxy)quinazolin-6-yl)acrylamide]
0.703 | 0.0526 | – | C=C(F)C(=O)Nc1cc2c(Nc3ccnc(-c4ccccc4F)c3)ncnc2cc1N1CCC(F)(F)CC1 [Example 110, N-(7-(4,4-difluoropiperidin-1-yl)-4-((2-(2-fluorophenyl)pyridin-4-yl)amino)quinazolin-6-yl)-2-fluoroacrylamide]
1.19 | 0.03 | – | C=C(F)C(=O)Nc1cc2c(Nc3ccnc(-c4ccccc4F)c3)ncnc2cc1N1CC(OC)C1 [Example 104, 2-fluoro-N-(4-((2-(2-fluorophenyl)pyridin-4-yl)amino)-7-(3-methoxyazetidin-1-yl)quinazolin-6-yl)acrylamide]
0.112 | 0.0128 | – | C=C(F)C(=O)Nc1cc2c(Nc3ccnc(-c4ccccc4F)c3)ncnc2cc1OCCOC [Example 89, 2-fluoro-N-(4-((2-(2-fluorophenyl)pyridin-4-yl)amino)-7-(2-methoxyethoxy)quinazolin-6-yl)acrylamide]
1.53 | 0.003 | – | C=CC(=O)Nc1cc2c(Nc3ccnc(-c4ccccc4F)c3)ncnc2cc1OCCOC [Example 85, N-(4-((2-(2-fluorophenyl)pyridin-4-yl)amino)-7-(2-methoxyethoxy)quinazolin-6-yl)acrylamide]
0.159 | 0.0258 | – | C=C(F)C(=O)Nc1cc2c(Nc3ccnc(-c4ccccc4F)c3)ncnc2cc1N1CCC(F)CC1 [Example 109, 2-fluoro-N-(4-((2-(2-fluorophenyl)pyridin-4-yl)amino)-7-(4-fluoropiperidin-1-yl)quinazolin-6-yl)acrylamide]
– | 0.0299 | – | C=C(F)C(=O)Nc1cc2c(Nc3ccnc(-c4ccccc4F)c3)ncnc2cc1N1CCC(F)(F)C1 [Example 108, N-(7-(3,3-difluoropyrrolidin-1-yl)-4-((2-(2-fluorophenyl)pyridin-4-yl)amino)quinazolin-6-yl)-2-fluoroacrylamide]
1.64 | 0.0409 | – | C=C(F)C(=O)Nc1cc2c(Nc3ccnc(-c4ccccc4F)c3)ncnc2cc1N1CC(F)C1 [Example 106, 2-fluoro-N-(7-(3-fluoroazetidin-1-yl)-4-((2-(2-fluorophenyl)pyridin-4-yl)amino)quinazolin-6-yl)acrylamide]
2.5 | – | 0.0183 | C=C(F)C(=O)Nc1cc2c(Nc3ccnc(-c4ccccc4F)c3)ncnc2cc1N1CC(F)(F)C1 [Example 107, N-(7-(3,3-difluoroazetidin-1-yl)-4-((2-(2-fluorophenyl)pyridin-4-yl)amino)quinazolin-6-yl)-2-fluoroacrylamide]

Second part, the compound before the results:

Compound | IC50 (A431 (EGFR-WT)) [µM] | GI50 [1] [µM] | GI50 [2] [µM]
C=CC(=O)Nc1cc2c(Nc3cccc(-c4ccc(F)cc4F)c3)ncnc2cc1C#CC(C)(C)N(C)C [Example 9, N-(4-((2′,4′-difluoro-[1,1′-biphenyl]-3-yl)amino)-7-(3-(dimethylamino)-3-methylbut-1-yn-1-yl)quinazolin-6-yl)acrylamide] | 0.625 | – | 0.0401
C=CC(=O)Nc1cc2c(Nc3cc(-c4ncc(F)cc4F)ccc3F)ncnc2cc1OCCCN1CCOCC1 [Example 2, N-(4-((5-(3,5-difluoropyridin-2-yl)-2-fluorophenyl)amino)-7-(3-morpholinopropoxy)quinazolin-6-yl)acrylamide] | – | – | 0.121
C=CC(=O)Nc1cc2c(Nc3cc(-c4ccc(F)cc4F)ccc3F)ncnc2cc1OCCN1CCOCC1 [Example 10, N-(7-(2-morpholinoethoxy)-4-((2′,4,4′-trifluoro-[1,1′-biphenyl]-3-yl)amino)quinazolin-6-yl)acrylamide] | 0.625 | – | 0.0287
C=CC(=O)Nc1cc2c(Nc3cccc(-c4ncc(F)cc4F)c3)ncnc2cc1OCCN1CCOCC1 [Example 16, N-(4-((3-(3,5-difluoropyridin-2-yl)phenyl)amino)-7-(2-morpholinoethoxy)quinazolin-6-yl)acrylamide] | 0.372 | – | 0.034
C=CC(=O)Nc1cc2c(Nc3cccc(-c4ccc(F)cc4F)c3)ncnc2cc1C#CC(C)(C)N1CCN(C)CC1 [Example 12, N-(4-((2′,4′-difluoro-[1,1′-biphenyl]-3-yl)amino)-7-(3-methyl-3-(4-methylpiperazin-1-yl)but-1-yn-1-yl)quinazolin-6-yl)acrylamide] | 0.624 | – | 0.0323
C=CC(=O)Nc1cc2c(Nc3cccc(-c4c(F)cc(F)cc4F)c3)ncnc2cc1OCCN1CCOCC1 [Example 24, N-(7-(2-morpholinoethoxy)-4-((2′,4′,6′-trifluoro-[1,1′-biphenyl]-3-yl)amino)quinazolin-6-yl)acrylamide] | 0.378 | – | 0.0462
C=CC(=O)Nc1cc2c(Nc3ccnc(-c4ccccc4F)c3)ncnc2cc1OCC(F)(F)F [Example 84, N-(4-((2-(2-fluorophenyl)pyridin-4-yl)amino)-7-(2,2,2-trifluoroethoxy)quinazolin-6-yl)acrylamide] | 1.78 | 0.0032 | –
C=CC(=O)Nc1cc2c(Nc3cc(-c4ccc(F)cn4)ccc3F)ncnc2cc1OCCCN1CCOCC1 [Example 23, N-(4-((2-fluoro-5-(5-fluoropyridin-2-yl)phenyl)amino)-7-(3-morpholinopropoxy)quinazolin-6-yl)acrylamide] | – | – | 0.261
C=CC(=O)Nc1cc2c(Nc3cccc(-c4ccc(F)cn4)c3)ncnc2cc1OCCCN1CCOCC1 [Example 13, N-(4-((3-(5-fluoropyridin-2-yl)phenyl)amino)-7-(3-morpholinopropoxy)quinazolin-6-yl)acrylamide] | 0.625 | – | 0.105
C=CC(=O)Nc1cc2c(Nc3cc(-c4ncc(F)cc4F)ccc3F)ncnc2cc1OCCN1CCOCC1 [Example 18, N-(4-((5-(3,5-difluoropyridin-2-yl)-2-fluorophenyl)amino)-7-(2-morpholinoethoxy)quinazolin-6-yl)acrylamide] | – | – | 0.129
